compound: O=C1NC(=O)[C@@H](c2cn3c4c(cccc24)CCC3)[C@@H]1c1c[nH]c2ccccc12 [Tivantinib] + CS(=O)(=O)N1CCN(Cc2cc3nc(-c4cccc5[nH]ncc45)nc(N4CCOCC4)c3s2)CC1 [Pictilisib] (partner 1 µM); assay: relative viability (nuclei count vs DMSO), 5 days (fraction); higher = more cells survive; details: first compound 0.1 µM
Outline: (§1)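 Relative viability equals treated-well nuclei counts divided by vehicle-well nuclei counts. Counts came from 4× images of lung cancer cell lines grown in 1536-well plates for 5 days after pin-tool dosing on the day after seeding. Dosing used one drug alone or a fixed anchor-drug dose plus five library-drug doses (not always all listed) in √10 steps, and values are medians of duplicate plates.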

Question: For HARA, which relative viability is on record?
Answer: 0.474

Question: Which relative viability does the source give for COR-L23 here?
Answer: 0.762

Question: How did the relative viability turn out when COR-L 105 was run?
Answer: 0.389

Question: With LC-2-ad as the cell line, how does the relative viability read?
Answer: 0.479

Question: LU99A was tested. Which relative viability did it give?
Answer: 0.292

Question: Which relative viability does the source give for ChaGo-K-1 here?
Answer: 0.757

Question: How did the relative viability turn out when NCI-H2170 was run?
Answer: 0.33

Question: NCI-H3122 was tested. Which relative viability did it give?
Answer: 0.545

Question: IA-LM was tested. Which relative viability did it give?
Answer: 0.343

Question: Which relative viability does the source give for HCC-78 here?
Answer: 0.204

Question: With A549 as the cell line, how does the relative viability read?
Answer: 0.468

Question: For LXF-289, which relative viability is on record?
Answer: 0.703

Question: With BEN as the cell line, how does the relative viability read?
Answer: 0.501

Question: How did the relative viability turn out when NCI-H2023 was run?
Answer: 0.218

Question: NCI-H520 was tested. Which relative viability did it give?
Answer: 0.268

Question: With SW 1573 as the cell line, how does the relative viability read?
Answer: 0.406

Question: Which relative viability does the source give for NCI-H1299 here?
Answer: 0.695

Question: For CAL-12T, which relative viability is on record?
Answer: 0.377

Question: NCI-H1563 was tested. Which relative viability did it give?
Answer: 0.651

Question: With NCI-H1650 as the cell line, how does the relative viability read?
Answer: 0.589

Question: With SK-LU-1 as the cell line, how does the relative viability read?
Answer: 0.614

Question: How did the relative viability turn out when NCI-H661 was run?
Answer: 0.387

same assay, conditions: first compound 0.3162 µM

Question: Which relative viability does the source give for NCI-H838 here?
Answer: 0.373

Question: With NCI-H1651 as the cell line, how does the relative viability read?
Answer: 0.614

Question: For EBC-1, which relative viability is on record?
Answer: 0.345

Question: NCI-H1734 was tested. Which relative viability did it give?
Answer: 0.469

Question: How did the relative viability turn out when NCI-H2009 was run?
Answer: 0.763

Question: How did the relative viability turn out when EPLC-272H was run?
Answer: 0.278

Question: How did the relative viability turn out when PC-14 was run?
Answer: 0.292

Question: LCLC-97TM1 was tested. Which relative viability did it give?
Answer: 0.181

Question: NCI-H596 was tested. Which relative viability did it give?
Answer: 0.334

Question: How did the relative viability turn out when NCI-H2228 was run?
Answer: 0.413

Question: For EMC-BAC-2, which relative viability is on record?
Answer: 0.527

Question: With NCI-H2087 as the cell line, how does the relative viability read?
Answer: 0.896

Question: How did the relative viability turn out when Calu-6 was run?
Answer: 0.889

Question: Which relative viability does the source give for HCC-44 here?
Answer: 0.728

Question: Which relative viability does the source give for NCI-H1703 here?
Answer: 0.228

Question: How did the relative viability turn out when NCI-H647 was run?
Answer: 0.371

Question: With LK-2 as the cell line, how does the relative viability read?
Answer: 0.496

Question: How did the relative viability turn out when NCI-H2126 was run?
Answer: 0.478

Question: Which relative viability does the source give for SK-MES-1 here?
Answer: 0.213

Question: Which relative viability does the source give for HARA here?
Answer: 0.253

Question: COR-L23 was tested. Which relative viability did it give?
Answer: 0.98

Question: Which relative viability does the source give for COR-L 105 here?
Answer: 0.406

Question: How did the relative viability turn out when LC-2-ad was run?
Answer: 0.511

Question: How did the relative viability turn out when LU99A was run?
Answer: 0.287

Question: With ChaGo-K-1 as the cell line, how does the relative viability read?
Answer: 0.646

Question: NCI-H3122 was tested. Which relative viability did it give?
Answer: 0.441

Question: For IA-LM, which relative viability is on record?
Answer: 0.218

Question: How did the relative viability turn out when HCC-78 was run?
Answer: 0.196

Question: With A549 as the cell line, how does the relative viability read?
Answer: 0.449

Question: With LXF-289 as the cell line, how does the relative viability read?
Answer: 0.817

Question: BEN was tested. Which relative viability did it give?
Answer: 0.432

Question: Which relative viability does the source give for NCI-H2023 here?
Answer: 0.202

Question: With NCI-H520 as the cell line, how does the relative viability read?
Answer: 0.262

Question: For SW 1573, which relative viability is on record?
Answer: 0.472

Question: NCI-H1299 was tested. Which relative viability did it give?
Answer: 0.807

Question: How did the relative viability turn out when CAL-12T was run?
Answer: 0.265

Question: With NCI-H1563 as the cell line, how does the relative viability read?
Answer: 0.674

Question: For NCI-H1650, which relative viability is on record?
Answer: 0.605

Question: SK-LU-1 was tested. Which relative viability did it give?
Answer: 0.548

Question: Which relative viability does the source give for NCI-H661 here?
Answer: 0.269

compound: O=C1NC(=O)[C@@H](c2cn3c4c(cccc24)CCC3)[C@@H]1c1c[nH]c2ccccc12 [Tivantinib] + NC(=O)Nc1cc(-c2cccc(F)c2)sc1C(=O)N[C@H]1CCCNC1 [AZD7762] (partner 0.2 µM); assay: as above; details: first compound 0.01 µM
Outline: as §1

Question: NCI-H522 was tested. Which relative viability did it give?
Answer: 0.829

Question: How did the relative viability turn out when NCI-H838 was run?
Answer: 1

Question: With NCI-H1651 as the cell line, how does the relative viability read?
Answer: 0.452

Question: NCI-H1734 was tested. Which relative viability did it give?
Answer: 0.6

Question: For EPLC-272H, which relative viability is on record?
Answer: 0.278

Question: With PC-14 as the cell line, how does the relative viability read?
Answer: 0.296

Question: How did the relative viability turn out when LCLC-97TM1 was run?
Answer: 0.268

Question: NCI-H596 was tested. Which relative viability did it give?
Answer: 0.994

Question: With EMC-BAC-2 as the cell line, how does the relative viability read?
Answer: 1.14

Question: NCI-H2087 was tested. Which relative viability did it give?
Answer: 1.28

Question: With HCC-44 as the cell line, how does the relative viability read?
Answer: 1.04

Question: NCI-H1703 was tested. Which relative viability did it give?
Answer: 0.159

Question: For NCI-H647, which relative viability is on record?
Answer: 0.509

Question: How did the relative viability turn out when LK-2 was run?
Answer: 0.447

Question: How did the relative viability turn out when NCI-H2126 was run?
Answer: 1

Question: NCI-H2342 was tested. Which relative viability did it give?
Answer: 0.505

Question: How did the relative viability turn out when HARA was run?
Answer: 0.214

Question: For LC-2-ad, which relative viability is on record?
Answer: 0.776

Question: Which relative viability does the source give for LU99A here?
Answer: 0.318

Question: With ChaGo-K-1 as the cell line, how does the relative viability read?
Answer: 0.781

Question: With NCI-H2170 as the cell line, how does the relative viability read?
Answer: 0.878

Question: NCI-H3122 was tested. Which relative viability did it give?
Answer: 1.05

Question: How did the relative viability turn out when HCC-78 was run?
Answer: 0.688

Question: With SW 900 as the cell line, how does the relative viability read?
Answer: 0.682

Question: For LXF-289, which relative viability is on record?
Answer: 1.14

Question: With BEN as the cell line, how does the relative viability read?
Answer: 0.705

Question: Which relative viability does the source give for CAL-12T here?
Answer: 0.563

same assay, conditions: first compound 0.03162 µM

Question: For NCI-H522, which relative viability is on record?
Answer: 0.812

Question: Which relative viability does the source give for NCI-H838 here?
Answer: 0.973

Question: How did the relative viability turn out when NCI-H1651 was run?
Answer: 0.404

Question: For NCI-H1734, which relative viability is on record?
Answer: 0.487

Question: EPLC-272H was tested. Which relative viability did it give?
Answer: 0.284

Question: How did the relative viability turn out when PC-14 was run?
Answer: 0.304

Question: For LCLC-97TM1, which relative viability is on record?
Answer: 0.311

Question: NCI-H596 was tested. Which relative viability did it give?
Answer: 0.975

Question: For EMC-BAC-2, which relative viability is on record?
Answer: 1.09

Question: NCI-H2087 was tested. Which relative viability did it give?
Answer: 1.47

Question: Which relative viability does the source give for HCC-44 here?
Answer: 1.05

Question: How did the relative viability turn out when NCI-H1703 was run?
Answer: 0.152

Question: NCI-H647 was tested. Which relative viability did it give?
Answer: 0.314

Question: For LK-2, which relative viability is on record?
Answer: 0.214

Question: NCI-H2126 was tested. Which relative viability did it give?
Answer: 1.03

Question: Which relative viability does the source give for NCI-H2342 here?
Answer: 0.515

Question: With HARA as the cell line, how does the relative viability read?
Answer: 0.416

Question: For LC-2-ad, which relative viability is on record?
Answer: 0.681

Question: How did the relative viability turn out when LU99A was run?
Answer: 0.356

Question: With ChaGo-K-1 as the cell line, how does the relative viability read?
Answer: 0.871

Question: With NCI-H2170 as the cell line, how does the relative viability read?
Answer: 0.822

Question: For NCI-H3122, which relative viability is on record?
Answer: 1.07

Question: HCC-78 was tested. Which relative viability did it give?
Answer: 0.786

Question: SW 900 was tested. Which relative viability did it give?
Answer: 0.464

Question: Which relative viability does the source give for LXF-289 here?
Answer: 1.13

Question: Which relative viability does the source give for BEN here?
Answer: 0.535

Question: How did the relative viability turn out when NCI-H1648 was run?
Answer: 0.61

Question: Which relative viability does the source give for CAL-12T here?
Answer: 0.603

same assay, conditions: first compound 0.1 µM

Question: How did the relative viability turn out when NCI-H522 was run?
Answer: 0.864

Question: Which relative viability does the source give for NCI-H838 here?
Answer: 0.872

Question: With NCI-H1651 as the cell line, how does the relative viability read?
Answer: 0.437

Question: For NCI-H1734, which relative viability is on record?
Answer: 0.505

Question: With EPLC-272H as the cell line, how does the relative viability read?
Answer: 0.21

Question: For PC-14, which relative viability is on record?
Answer: 0.4

Question: Which relative viability does the source give for LCLC-97TM1 here?
Answer: 0.197

Question: NCI-H596 was tested. Which relative viability did it give?
Answer: 1.09

Question: How did the relative viability turn out when EMC-BAC-2 was run?
Answer: 1.08

Question: Which relative viability does the source give for NCI-H2087 here?
Answer: 1.12

Question: HCC-44 was tested. Which relative viability did it give?
Answer: 1.08

Question: NCI-H1703 was tested. Which relative viability did it give?
Answer: 0.114

Question: For NCI-H647, which relative viability is on record?
Answer: 0.445

Question: Which relative viability does the source give for LK-2 here?
Answer: 0.288

Question: Which relative viability does the source give for NCI-H2126 here?
Answer: 0.94

Question: With NCI-H2342 as the cell line, how does the relative viability read?
Answer: 0.432

Question: Which relative viability does the source give for HARA here?
Answer: 0.394

Question: With LC-2-ad as the cell line, how does the relative viability read?
Answer: 0.817

Question: How did the relative viability turn out when LU99A was run?
Answer: 0.307

Question: Which relative viability does the source give for ChaGo-K-1 here?
Answer: 0.862

Question: How did the relative viability turn out when NCI-H2170 was run?
Answer: 0.794

Question: With NCI-H3122 as the cell line, how does the relative viability read?
Answer: 0.761

Question: With HCC-78 as the cell line, how does the relative viability read?
Answer: 0.651

Question: How did the relative viability turn out when SW 900 was run?
Answer: 0.5

Question: Which relative viability does the source give for LXF-289 here?
Answer: 1.07

Question: For BEN, which relative viability is on record?
Answer: 0.617

Question: How did the relative viability turn out when NCI-H1648 was run?
Answer: 0.767

Question: CAL-12T was tested. Which relative viability did it give?
Answer: 0.574

same assay, conditions: first compound 0.3162 µM

Question: Which relative viability does the source give for NCI-H522 here?
Answer: 0.612

Question: With NCI-H838 as the cell line, how does the relative viability read?
Answer: 0.906

Question: How did the relative viability turn out when NCI-H1651 was run?
Answer: 0.353

Question: With NCI-H1734 as the cell line, how does the relative viability read?
Answer: 0.478

Question: With EPLC-272H as the cell line, how does the relative viability read?
Answer: 0.268

Question: For PC-14, which relative viability is on record?
Answer: 0.226

Question: How did the relative viability turn out when LCLC-97TM1 was run?
Answer: 0.25

Question: For NCI-H596, which relative viability is on record?
Answer: 1.38

Question: EMC-BAC-2 was tested. Which relative viability did it give?
Answer: 1.22

Question: With NCI-H2087 as the cell line, how does the relative viability read?
Answer: 1.32

Question: With HCC-44 as the cell line, how does the relative viability read?
Answer: 0.985

Question: With NCI-H1703 as the cell line, how does the relative viability read?
Answer: 0.124

Question: How did the relative viability turn out when NCI-H647 was run?
Answer: 0.585
